Assay results published in patent US11464826B2, “Composition comprising an algal proteoglycan extract and use thereof” (priority 2016, dated 2022).
Where two headings read alike, the source gives them in different places.

Columns and labels:
liver cancer = details: treatment group (placebo control group 7.9 months); cited from earlier work
S-180 sarcoma = assay: Transplanted S-180 sarcoma in mice, tumor inhibition
Method: Tumors, including B-16 melanoma and S-180 sarcoma, were provided by Shanghai Institute of Materia Medica of the Chinese Academy of Sciences.
The tumor tissue was made into cell suspension. The mice were inoculated subcutaneously in the right axilla with the cell suspension, about 4.5-5×10^6 cells/mouse. After 24 hours, the mice were randomly divided into different groups and housed in separate cages (n=6). […] The administration began on the second day and lasted for seven days, with different doses. The blank control group was given normal saline (NS). The animals were sacrificed and weighed (g body weight) 24 hours after drug withdrawal. The tumors were excised and weighed. The average tumor weight was calculated for each group. According to the following formula, the tumor inhibition rate was calculated and T test was conducted.
According to the formula below, the tumor inhibition rate was calculated and T test was conducted.
(§1) A=average tumor weight (g) of blank control group,
B=average tumor weight (g) of therapeutic group

pancreatic carcinoma = details: cited from earlier work
B16 melanoma = assay: Transplanted B16 melanoma in mice, tumor inhibition; format: in vivo, C57 mice; details: alone or combined, once a day for seven days
Method: The tumor tissue was made into cell suspension. […] The blank control group was given normal saline (NS). […] The tumors were excised and weighed. The average tumor weight was calculated for each group.
as §1
B =average tumor weight (g) of therapeutic group

[1] = Table 18: 5-Fluorouracil 15 mg/kg i.p, Algal proteoglycan 20 mg/kg p.o, alone or combined, once a day for seven days
[2] = Table 14: Adriamycin 1 mg/kg i.p, Algal proteoglycan 30 mg/kg p.o
[3] = Table 17: Etoposide 3 mg/kg i.p, Algal proteoglycan 20 mg/kg p.o, alone or combined, once a day for seven days
[4] = Table 12: Carboplatin 4 mg/kg i.p, Algal proteoglycan 30 mg/kg p.o
[5] = Table 13: Carboplatin 4 mg/kg i.p, Algal proteoglycan 60 mg/kg p.o
[6] = Table 16: Carboplatin 4 mg/kg i.p, Algal proteoglycan 20 mg/kg p.o, alone or combined, once a day for seven days
[7] = Table 15: Cyclophosphamide 7.5 mg/kg i.p, Algal proteoglycan 60 mg/kg p.o, alone or combined, once a day for seven days

## CNC(=O)c1cc(Oc2ccc(NC(=O)Nc3ccc(Cl)c(C(F)(F)F)c3)cc2)ccn1 [Sorafenib]
Liver cancer
  median survival time: 10.7 months

## O=c1[nH]cc(F)c(=O)[nH]1 [5-Fluorouracil, 5-fluorouracil]
S-180 sarcoma; 5-fluorouracil 15 mg/kg used alone
  inhibitory effect on the transplanted tumor of S-180 sarcoma, in words: moderate inhibitory effect
S-180 sarcoma; [1]
  Tumor Inhibition Rate (%): 33.8%
  Tumor Weight (g) x ± SD: 1.04 ± 0.52 g

## Nc1ccn([C@@H]2O[C@H](CO)[C@@H](O)C2(F)F)c(=O)n1 [Gemcitabine]
Pancreatic carcinoma; Abou-Alfa et al, 349 cases
  Overall survival: 6.2 months
Pancreatic carcinoma; Berlin et al, 322 cases
  Overall survival: 5.4 months
Pancreatic carcinoma; Colucci et al, 400 cases
  Overall survival: 7.2 months
Pancreatic carcinoma; Cunningham et al, 533 cases
  Overall survival: 7.1 months
Pancreatic carcinoma; Heinemann et al, 195 cases
  Overall survival: 6.0 months
Pancreatic carcinoma; Hermann et al, 319 cases
  Overall survival: 7.2 months
Pancreatic carcinoma; Louvet et al, 313 cases
  Overall survival: 7.1 months
Pancreatic carcinoma; Oettle et al, 565 cases
  Overall survival: 6.3 months
Pancreatic carcinoma; Poplon et al, 832 cases
  Overall survival: 4.9 months
Pancreatic carcinoma; Rocha Lima et al, 342 cases
  Overall survival: 6.3 months
Pancreatic carcinoma; Starhopoulos et al, 145 cases
  Overall survival: 6.4 months

## Gemcitabine + cisplatin
Pancreatic carcinoma; Colucci et al, 400 cases
  Overall survival: 8.2 months
Pancreatic carcinoma; Heinemann et al, 195 cases
  Overall survival: 7.5 months

## COc1cccc2c1C(=O)c1c(O)c3c(c(O)c1C2=O)C[C@@](O)(C(=O)CO)C[C@@H]3O[C@H]1C[C@H](N)[C@H](O)[C@H](C)O1 [Adriamycin]
B16 melanoma; [2]
  Tumor Inhibition Rate (%): 41.5%
  Tumor Weight (g) x ± SD: 1.97 ± 0.84 g

## Gemcitabine + capecitabine
Pancreatic carcinoma; Cunningham et al, 533 cases
  Overall survival: 6.2 months
Pancreatic carcinoma; Hermann et al, 319 cases
  Overall survival: 8.4 months

## COc1cc([C@@H]2c3cc4c(cc3[C@@H](O[C@@H]3O[C@@H]5CO[C@@H](C)O[C@H]5[C@H](O)[C@H]3O)[C@H]3COC(=O)[C@H]23)OCO4)cc(OC)c1O [Etoposide]
S-180 sarcoma; [3]
  Tumor Inhibition Rate (%): 26.9%
  Tumor Weight (g) x ± SD: 1.33 ± 0.28 g

## N.N.O=C([O-])C1(C(=O)[O-])CCC1.[Pt+2] [Carboplatin]
B16 melanoma; [4]
  Body Weight (g) in the Beginning: 18.0 g
  Body Weight (g) in the End: 16.7 g
  Tumor Inhibition Rate (%): 28.2%
  Tumor Weight (g) x ± SD: 1.07 ± 0.88 g
B16 melanoma; [5]
  Body Weight (g) in the Beginning: 20.3 g
  Tumor Inhibition Rate (%): 14.0%
  Tumor Weight (g) x ± SD: 1.23 ± 0.37 g
S-180 sarcoma; Carboplatin 4 mg/kg used alone (P>0.05)
  inhibitory effect on the growth of the transplanted tumor of S-180 sarcoma, in words: no inhibitory effect
S-180 sarcoma; [6]
  Body Weight (g) in the End: 26.4 g
  Tumor Inhibition Rate (%): 7.7%
  Tumor Weight (g) x ± SD: 1.68 ± 0.53 g

## O=P1(N(CCCl)CCCl)NCCCO1 (stereo not drawn) [Cyclophosphamide]
S-180 sarcoma; [7]
  Body Weight (g) in the Beginning: 22.8 g
  Body Weight (g) in the End: 24.9 g
  Tumor Inhibition Rate (%): 42.2%
  Tumor Weight (g) x ± SD: 1.11 ± 0.24 g

## Nc1ccn([C@@H]2O[C@H](CO)[C@@H](O)C2(F)F)c(=O)n1 [Gemcitabine FDR.]
Pancreatic carcinoma; Poplon et al, 832 cases
  Overall survival: 6.2 months
